Laboratory results from paper PMC7736581, “Activation of the IRE1 RNase through remodeling of the kinase front pocket by ATP-competitive ligands” (Nature Communications, 2020).
Like-named read-outs stand apart in the source and are kept apart here.

Columns and labels:
[1] = test system: T1, IRE1 (endogenous, KMS-11); assay: cells; set-up: XBP1s mRNA by branched DNA assay in KMS-11 cell lysates after compound treatment; settings: Homo sapiens, KMS-11, 4 h
T1 construct: endogenous full-length in KMS-11 cells
Method: 15-20k KMS-11 cells in RPMI growth media were seeded into 96-well plates and treated with compounds or DMSO control over a period of 4 h the following day. RNA levels of XBP1s and DGAT2 in KMS-11 cell lysates were measured using the QuantiGene 2.0 bDNA assay technology (Thermofisher). See Supplementary Table 4 for sequences of relevant capture probes. Data analysis was carried out against an assay background control with no cell lysate (no-RNA control). In the case of AMG-18, cells were also stimulated with thapsigargin (Tg, 100 nM) 30 min after compound addition. No Tg was used when treating cells with all other compounds. Samples were run in duplicate. To investigate whether this peculiar conformation had any role in the mechanism of activation of G-1749, we evaluated different tails to substitute the ethyl carbamate on the naphthyl moiety (Fig. 3, Supplementary Table 2). […] This is likely due to clashes with residues lining the front pocket, which in turn would force the tails to occupy the back pocket and break the salt bridge, thereby causing RNase inhibition. […] Experiments in KMS-11 cells (Fig. 3b, c, right panels) confirmed the effect of these tail modifications on IRE1 RNase activation. […] The chemical substituents tolerated by the front pocket seem to be very limited: even a minor substitution of the carbamate oxygen atom to a larger [compound left out], from ethyl carbamate to propyl amide (compound 6), or from methyl carbamate to methyl or ethyl amide (compound 4 or 5, respectively), or increasing the tail length by one atom, from ethyl to propyl carbamate (compound 11), is enough to impart a switch from activation to inhibition (Fig. 3b, c). […] RNA cleavage was measured by a kinetic fluorescence assay using an XBP1-like RNA hairpin substrate and IRE1 LKR construct (Q470-L977). Background from the no-protein control was subtracted from signal before calculating fold change. Source data are provided as a Source Data file. Data are presented as the mean for measurements from two independent experiments (n = 2). c RNA levels for IRE1 RNase product XBP1s measured by bDNA assay of lysates from KMS-11 cells treated with compounds for 4 h. Background from the no-RNA control was subtracted from signal before calculating fold change. Source data are provided as a Source Data file. Data are presented as the mean for measurements from two independent experiments (n = 2). d, e Analytical Ultracentrifugation sedimentation velocity (SV-AUC) experiments for (d), IRE1 LKR (Q470-L977) unphosphorylated and autophosphorylated and (e), IRE1 LKR unphosphorylated in the presence of slight excess G-9807 and G-1749. Calculated sedimentation coefficients for IRE1 monomer (3.1 svedbergs) and dimer (4.6 svedbergs) are highlighted by dotted lines. Source data are provided as a Source Data file.

[2] = biological target: Inositol-Requiring Enzyme 1 (IRE1) (Homo sapiens, UniProt O75460); assay: biochemical; set-up: gene ERN1; IRE1 cytoplasmic kinase-RNase construct; kinetic fluorescence RNA cleavage (FAM/BHQ XBP1 stem-loop) by IRE1 LKR Q470-L977
Sequence of Inositol-Requiring Enzyme 1 (IRE1) (O75460 547-977): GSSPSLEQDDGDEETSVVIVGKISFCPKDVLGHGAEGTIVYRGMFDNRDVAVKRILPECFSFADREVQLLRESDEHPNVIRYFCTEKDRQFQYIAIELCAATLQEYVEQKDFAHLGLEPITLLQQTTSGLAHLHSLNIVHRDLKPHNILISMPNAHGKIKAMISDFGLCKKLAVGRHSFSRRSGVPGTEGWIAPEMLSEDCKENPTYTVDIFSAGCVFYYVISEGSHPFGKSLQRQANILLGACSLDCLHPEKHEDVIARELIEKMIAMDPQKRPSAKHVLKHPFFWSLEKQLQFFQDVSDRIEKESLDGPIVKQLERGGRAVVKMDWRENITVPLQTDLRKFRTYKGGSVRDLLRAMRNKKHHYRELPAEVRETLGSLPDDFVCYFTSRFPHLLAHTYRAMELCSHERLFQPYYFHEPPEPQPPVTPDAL
Method: A 5′-Carboxyfluorescein (FAM)-and 3′-Black Hole Quencher (BHQ)-labeled single stem-loop mini-substrate containing XBP1 sequence (sequence reported in Supplementary Table 4) was used as substrate for cleavage by IRE1 LKR (Q470-L977) or IRE1 KR (G547-L977) in 20 mM HEPES pH 7.5, 50 mM potassium acetate, 1 mM magnesium acetate, 1 mM dithiothreitol, 0.05% v/v TritonX-100. Concentrations were as follows: 8 nM IRE1 LKR and 200 nM RNA substrate; 22 nM IRE1 KR-0P and 200 nM RNA substrate; 2 nM IRE1 KR 3P and 500 nM RNA substrate. RNA cleavage was measured kinetically over an hour at room temperature as an increase in fluorescence. The final reaction was carried out in 20 µL in 384-well plates. Samples were run in duplicate. To investigate whether this peculiar conformation had any role in the mechanism of activation of G-1749, we evaluated different tails to substitute the ethyl carbamate on the naphthyl moiety (Fig. 3, Supplementary Table 2). […] This is likely due to clashes with residues lining the front pocket, which in turn would force the tails to occupy the back pocket and break the salt bridge, thereby causing RNase inhibition. […] Experiments in KMS-11 cells (Fig. 3b, c, right panels) confirmed the effect of these tail modifications on IRE1 RNase activation. […] The chemical substituents tolerated by the front pocket seem to be very limited: even a minor substitution of the carbamate oxygen atom to a larger [compound left out], from ethyl carbamate to propyl amide (compound 6), or from methyl carbamate to methyl or ethyl amide (compound 4 or 5, respectively), or increasing the tail length by one atom, from ethyl to propyl carbamate (compound 11), is enough to impart a switch from activation to inhibition (Fig. 3b, c). […] RNA cleavage was measured by a kinetic fluorescence assay using an XBP1-like RNA hairpin substrate and IRE1 LKR construct (Q470-L977). Background from the no-protein control was subtracted from signal before calculating fold change. Source data are provided as a Source Data file. Data are presented as the mean for measurements from two independent experiments (n = 2). c RNA levels for IRE1 RNase product XBP1s measured by bDNA assay of lysates from KMS-11 cells treated with compounds for 4 h. Background from the no-RNA control was subtracted from signal before calculating fold change. Source data are provided as a Source Data file. Data are presented as the mean for measurements from two independent experiments (n = 2). d, e Analytical Ultracentrifugation sedimentation velocity (SV-AUC) experiments for (d), IRE1 LKR (Q470-L977) unphosphorylated and autophosphorylated and (e), IRE1 LKR unphosphorylated in the presence of slight excess G-9807 and G-1749. Calculated sedimentation coefficients for IRE1 monomer (3.1 svedbergs) and dimer (4.6 svedbergs) are highlighted by dotted lines. Source data are provided as a Source Data file.

[3] = biological target: IRE1 LKR (Q470-L977), autophosphorylated (human) (UniProt O75460); assay: AUC; sedimentation velocity; IRE1 LKR at 3.3, 10 and 30 µM without compound; 25 mM HEPES pH 7.5, 250 mM NaCl, 1 mM TCEP; 20 °C, 45,000 rpm, A280; fit to a monomer-dimer equilibrium model (Sedanal); monomer to dimer
[4] = biological target: IRE1 LKR (Q470-L977), unphosphorylated (human) (UniProt O75460); assay: AUC; sedimentation velocity; unphosphorylated IRE1 LKR at 3.3, 10 and 30 µM with a slight (ca. 15% molar) excess of G-9807 (4, 12, 35 µM); 25 mM HEPES pH 7.5, 250 mM NaCl, 1 mM TCEP; 20 °C; fit to a monomer-dimer equilibrium model; monomer to dimer
[5] = XBP1s mRNA increase, read-out: EC50 (KMS-11 bDNA assay, XBP1s), activators
[6] = RNase activation, read-out: EC50 (RNase biochemical assay), activators
[7] = XBP1s mRNA decrease, read-out: EC50 (KMS-11 bDNA assay, XBP1s), inhibitors
[8] = RNase inhibition, read-out: EC50 (RNase biochemical assay), inhibitors
[9] = RNase inhibition, inhibitor, read-out: EC50 (RNase biochemical assay), inhibitors

Row | Compound | EC50 [1, 7] [µM] | EC50 [2, 9] [µM] | further results
1 | C/C=C/C(=O)Nc1cccc2c(Oc3ncccc3-c3ccnc(N[C@H]4CCCNC4)n3)c(C)ccc12 [compound 1] |  |  | EC50 [1, 5]: 0.331 ± 0.128 µM; EC50 [2, 6]: 0.007 ± 0.001 µM
2 | COC(=O)Nc1cccc2c(Oc3ncccc3-c3ccnc(N[C@H]4CCCNC4)n3)c(C)ccc12 [compound 2] |  |  | EC50 [1, 5]: 3.37 ± 0.709 µM; EC50 [2, 6]: 0.004 ± 0.004 µM
3 | Cc1ccc2c(N)cccc2c1Oc1ncccc1-c1ccnc(N[C@H]2CCCNC2)n1 [compound 3, 3] |  |  | EC50 [1, 5]: 3.26 ± 0.48 µM; EC50 ([2]; RNase activation, activator, read-out: EC50 (RNase biochemical assay), activators): 0.031 ± 0.023 µM
4 | CC(=O)Nc1cccc2c(Oc3ncccc3-c3ccnc(N[C@H]4CCCNC4)n3)c(C)ccc12 [compound 4] | 0.649 ± 0.241 |  | EC50 [2, 8]: 0.008 ± 0.002 µM
5 | CCC(=O)Nc1cccc2c(Oc3ncccc3-c3ccnc(N[C@H]4CCCNC4)n3)c(C)ccc12 [compound 5] | 0.816 ± 0.346 |  | EC50 [2, 8]: 0.028 ± 0.005 µM
6 | CCCC(=O)Nc1cccc2c(Oc3ncccc3-c3ccnc(N[C@H]4CCCNC4)n3)c(C)ccc12 [compound 6] | 0.221 ± 0.052 |  | EC50 [2, 8]: 0.022 ± 0.035 µM
7 | Cc1ccc2c(NC(=O)OC(C)C)cccc2c1Oc1ncccc1-c1ccnc(N[C@H]2CCCNC2)n1 [compound 7, 7] | 0.456 ± 0.226 | 0.036 ± 0.005 | 
8 | Cc1ccc2c(NC(=O)OCC(C)C)cccc2c1Oc1ncccc1-c1ccnc(N[C@H]2CCCNC2)n1 [compound 8, 8] | 0.465 ± 0.154 | 0.018 ± 0.003 | 
9 | Cc1ccc2c(NC(=O)OCC(C)(C)C)cccc2c1Oc1ncccc1-c1ccnc(N[C@H]2CCCNC2)n1 [compound 9, 9] | 1.05 ± 0.372 | 0.068 ± 0.021 | 
10 | Cc1ccc2c(NC(=O)C#CC(C)(C)C)cccc2c1Oc1ncccc1-c1ccnc(N[C@H]2CCCNC2)n1 [compound 10, 10] | 0.38 ± 0.109 | 0.035 ± 0.005 | 
11 | CCCOC(=O)Nc1cccc2c(Oc3ncccc3-c3ccnc(N[C@H]4CCCNC4)n3)c(C)ccc12 [compound 11] | 0.234 ± 0.078 |  | EC50 [2, 8]: 0.029 ± 0.006 µM
12 | Cc1ccc2c(NC(=O)C#CCC(C)(C)C)cccc2c1Oc1ncccc1-c1ccnc(N[C@H]2CCCNC2)n1 [compound 12, 12] | 0.645 ± 0.111 | 0.052 ± 0.012 | 
13 | IRE1 LKR (Q470-L977), autophosphorylated (from UniProt O75460 470-977) (domain or fragment) |  |  | Kd [3]: 67 µM; stoichiometry N [3]: 2
14 | IRE1 LKR (Q470-L977), unphosphorylated (from UniProt O75460 470-977) (domain or fragment) |  |  | stoichiometry N [4]: 2
